# Data published in PMC7840908 (Communications Biology, 2021).
# Several values for one entry are separate records, joined by “and”; a condition that tells them apart may be missing. Identical values can stand only once. Entries after “also recorded” stand apart in the source; their conditions may differ.
# Columns and labels:
# Assay type in all cases: binding
# MERS-CoV macro domain [1] = target: T1, MERS-CoV macro domain (Middle East respiratory syndrome-related coronavirus, UniProt K9N638)
# MERS-CoV macro domain [2] = target: T1, MERS-CoV macro domain; remark: listed apart in the source
# MERS-CoV macro domain [3] = target: T1, MERS-CoV macro domain; remark: listed apart in the source
# MERS-CoV macro domain [4] = target: T1, MERS-CoV macro domain; remark: listed apart in the source
# T1 sequence (K9N638 1110-1276 limits assumed): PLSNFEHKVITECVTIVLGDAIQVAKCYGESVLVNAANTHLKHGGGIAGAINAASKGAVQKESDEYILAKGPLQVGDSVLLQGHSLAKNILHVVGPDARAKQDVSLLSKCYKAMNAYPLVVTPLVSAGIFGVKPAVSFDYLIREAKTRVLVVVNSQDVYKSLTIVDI
structure (smiles),measurement,setting,value
"Nc1ncnc2c1ncn2[C@@H]1O[C@H](COP(=O)(O)OP(=O)(O)O)[C@@H](O)[C@H]1O [ADP, adenosine diphosphate]","NMR CSP, residue 11",MERS-CoV macro domain [1],0.01279 and 0.006701
same,"NMR CSP, residue 29",MERS-CoV macro domain [1],0.01328 and 0.01691
same,"NMR CSP, residue 36",MERS-CoV macro domain [1],0.05057
same,"NMR CSP, residue 37",MERS-CoV macro domain [1],0.07911
same,"NMR CSP, residue 46",MERS-CoV macro domain [1],0.3834
same,"NMR CSP, residue 47",MERS-CoV macro domain [1],0.05654 and 0.03639
same,"NMR CSP, residue 48",MERS-CoV macro domain [1],0.08159 and 0.1212
same,"NMR CSP, residue 67",MERS-CoV macro domain [1],0.0178 and 0.009143
same,"NMR CSP, residue 75",MERS-CoV macro domain [1],0.05887 and 0.06181
same,"NMR CSP, residue 94",MERS-CoV macro domain [1],0.1393
same,"NMR CSP, residue 101",MERS-CoV macro domain [1],0.03691 and 0.02294
same,"NMR CSP, residue 125",MERS-CoV macro domain [1],0.08579
same,"NMR CSP, residue 130",MERS-CoV macro domain [1],0.08457 and 0.1167
same,"NMR CSP, residue 132",MERS-CoV macro domain [1],0.01774 and 0.01343
same,"NMR CSP, residue 149",MERS-CoV macro domain [1],0.01454
same,"NMR CSP, residue 154",MERS-CoV macro domain [1],0.08237
same,"NMR CSP, residue 156",MERS-CoV macro domain [1],0.2276
same,"Melting temperature (Tm) of the MERS-CoV macro domain in complex, CD",MERS-CoV macro domain [2],43.7 °C
same,n (stoichiometry of binding),MERS-CoV macro domain [3],1.08 ± 0.06
same,ΔH,MERS-CoV macro domain [3],-3.85 ± 1.8 kcal/mol
same,−TΔS,MERS-CoV macro domain [3],-1.86 ± 1.51 kcal/mol
same,"Melting temperature (Tm) of the MERS-CoV macro domain in complex, DSF",MERS-CoV macro domain [4],44.5 °C
"Nc1ncnc2c1ncn2C1OC(COP(=O)(O)O)C(O)C1O (centres unmarked) [AMP, adenosine monophosphate]","NMR CSP, residue 12",MERS-CoV macro domain [1],0.007029 and 0.005468
same,"NMR CSP, residue 22",MERS-CoV macro domain [1],0.06732 and 0.05323
same,"NMR CSP, residue 23",MERS-CoV macro domain [1],0.01249 and 0.01858
same,"NMR CSP, residue 31",MERS-CoV macro domain [1],0.03059 and 0.02592
same,"NMR CSP, residue 55",MERS-CoV macro domain [1],0.07284 and 0.04017
same,"NMR CSP, residue 67",MERS-CoV macro domain [1],0.009649 and 0.005916
same,"NMR CSP, residue 70",MERS-CoV macro domain [1],0.01453 and 0.01754
same,"NMR CSP, residue 71",MERS-CoV macro domain [1],0.01269 and 0.01423
same,"NMR CSP, residue 78",MERS-CoV macro domain [1],0.004301 and 0.003017
same,"NMR CSP, residue 81",MERS-CoV macro domain [1],0.019 and 0.02485
same,"NMR CSP, residue 85",MERS-CoV macro domain [1],0.01205 and 0.01581
same,"NMR CSP, residue 90",MERS-CoV macro domain [1],0.01829 and 0.02265
same,"NMR CSP, residue 99",MERS-CoV macro domain [1],0.0122 and 0.008579
same,"NMR CSP, residue 110",MERS-CoV macro domain [1],0.01629 and 0.01233
same,"NMR CSP, residue 130",MERS-CoV macro domain [1],0.0583 and 0.06532
same,"NMR CSP, residue 138",MERS-CoV macro domain [1],0.02281 and 0.03131
same,"NMR CSP, residue 153",MERS-CoV macro domain [1],0.05051
same,"NMR CSP, residue 156",MERS-CoV macro domain [1],0.1498
same,"NMR CSP, residue 161",MERS-CoV macro domain [1],0.003728 and 0.003225
same,NMR chemical shift perturbation behaviour / exchange regime,MERS-CoV macro domain [1],fast-exchange; also recorded: almost no chemical shift perturbation
same,"Melting temperature (Tm) of the MERS-CoV macro domain in complex, CD",MERS-CoV macro domain [2],44.0 °C
same,n (stoichiometry of binding),MERS-CoV macro domain [3],1.05 ± 0.38
same,ΔH,MERS-CoV macro domain [3],-2.674 ± 0.722 kcal/mol
same,−TΔS,MERS-CoV macro domain [3],-2.419 ± 0.571 kcal/mol
same,"Melting temperature (Tm) of the MERS-CoV macro domain in complex, DSF",MERS-CoV macro domain [4],42.5 °C
